In patent US20230047816A1 (priority 2018, published 2023):

Molecular target: Recombinant full length human PFKFB3 (Homo sapiens, UniProt Q16875)
Experiment: PFKFB3 kinase activity assay (ADP production, ADP-Glo)

Chain of Recombinant full length human PFKFB3 (Q16875 whole entry): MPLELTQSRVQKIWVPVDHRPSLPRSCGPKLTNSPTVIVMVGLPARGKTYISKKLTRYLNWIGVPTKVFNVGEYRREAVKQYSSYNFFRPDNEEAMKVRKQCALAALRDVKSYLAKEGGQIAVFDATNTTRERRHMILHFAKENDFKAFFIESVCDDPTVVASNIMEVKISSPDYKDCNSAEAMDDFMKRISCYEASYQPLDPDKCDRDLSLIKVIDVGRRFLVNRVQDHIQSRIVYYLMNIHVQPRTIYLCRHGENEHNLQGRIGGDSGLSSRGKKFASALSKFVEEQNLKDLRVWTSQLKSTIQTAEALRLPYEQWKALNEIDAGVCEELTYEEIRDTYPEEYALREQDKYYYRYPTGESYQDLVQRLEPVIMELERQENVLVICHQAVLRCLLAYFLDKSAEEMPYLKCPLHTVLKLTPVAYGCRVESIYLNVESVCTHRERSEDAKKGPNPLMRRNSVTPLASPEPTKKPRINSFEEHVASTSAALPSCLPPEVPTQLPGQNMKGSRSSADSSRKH

IC50 | SMILES
< 0.5 µM | Cc1ccc(-c2ccc(C(=O)O)c(N3C(=O)c4ccc(C(=O)O)cc4C3=O)c2)cc1 [Compound 141, 2-(4-Carboxy-4′-methyl[1,1′-biphenyl]-3-yl)-1,3-dioxo-2,3-dihydro-1H-isoindole-5-carboxylic acid]
< 0.5 µM | O=C(O)c1ccc2c(c1)C(=O)N(c1cc(-c3cccnc3)ccc1C(=O)O)C2=O [Example 52]
2 to 5 µM | O=C(O)c1ccc(-c2ccccc2)cc1N1Cc2ccc(-c3c[nH]nn3)cc2C1=O [Compound 92, 3-[1-Oxo-6-(1H-[1,2,3]triazol-4-yl)-1,3-dihydroisoindol-2-yl]biphenyl-4-carboxylic Acid]
< 20 µM | COC(=O)c1ccc(-c2ccccc2)cc1N1C(=O)c2ccc(C(=O)NS(C)(=O)=O)cc2C1=O [Example 41]
< 0.5 µM | O=C(O)c1ccc2c(c1)C(=O)N(c1ccc(-c3ccccc3)cc1-c1nnn[nH]1)C2=O [Example 2, 1,3-Dioxo-2-[3-(1H-tetrazol-5-yl)-1,1′-biphenyl-4-yl]-2,3-dihydro-1H-isoindole-5-carboxylic Acid]
2 to 5 µM | NC(=O)c1ccc2c(c1)C(=O)N(c1ccc(-c3ccccc3)cc1C(=O)O)C2=O [Example 27]
5 to 20 µM | O=C1c2ccc(-c3c[nH]nn3)cc2C(=O)N1c1cc(-c2ccccc2)ccn1 [Compound 84, 2-(4-Phenylpyridin-2-yl)-5-(1H-[1,2,3]triazol-4-yl)-isoindole-1,3-dione]
2 to 5 µM | O=C(O)c1cc(-c2ccccc2)ccc1N1C(=O)c2ccc(-c3cn(Cc4ccccc4)nn3)cc2C1=O [Example 29]
5 to 20 µM | CN(C)CCOC(=O)c1cc(-c2ccccc2)ccc1N1C(=O)c2ccc(-c3c[nH]nn3)cc2C1=O [Compound 78, 4-[1,3-Dioxo-5-(1H-[1,2,3]triazol-4-yl)-1,3-dihydroisoindol-2-yl]biphenyl-3-carboxylic acid 2-dimethylamino-ethyl ester]
0.5 to 2 µM | O=C(O)c1ccc2c(c1)C(=O)N(c1cc(-c3ccccc3)ccc1O)C2=O [Example 3, 2-(4-Hydroxy[1,1′-biphenyl]-3-yl)-1,3-dioxo-2,3-dihydro-1H-isoindole-5-carboxylic Acid]
< 0.5 µM | O=C(O)c1ccc(-c2ccccc2)cc1N1C(=O)c2ccc(-c3c[nH]nn3)cc2C1=O [Example 59]
2 to 5 µM | O=C(NS(=O)(=O)c1ccccc1)c1ccc2c(c1)C(=O)N(c1ccc(-c3ccccc3)cc1C(=O)O)C2=O [Example 22]
< 20 µM | Nc1cc(C(=O)O)ccc1C(=O)Nc1cc(-c2ccccc2)ccc1C(=O)O [Example 4, 3-(2-amino-4-carboxybenzamido)-[1,1′-biphenyl]-4-carboxylic acid]

The next lines start with the compound.

SMILES | IC50
Cc1cc(-c2ccccc2)cc(N2C(=O)c3ccc(-c4c[nH]nn4)cc3C2=O)n1 [Compound 88, 2-(6-Methyl-4-phenylpyridin-2-yl)-5-(1H-[1,2,3]triazol-4-yl)-isoindole-1,3-dione] | 5 to 20 µM
O=C(O)c1ccc(C(=O)O)c(C(=O)Nc2cc(-c3ccc(F)cc3)ccc2C(=O)O)c1 [Example 1, 2-({4-carboxy-4′-fluoro-[1,1′-biphenyl]-3-yl}carbamoyl)benzene-1,4-dicarboxylic acid] | 0.5 to 2 µM
O=C(OCCN1CCOCC1)c1cc(-c2ccccc2)ccc1N1C(=O)c2ccc(-c3c[nH]nn3)cc2C1=O [Compound 80, 4-[1,3-Dioxo-5-(1H-[1,2,3]triazol-4-yl)-1,3-dihydroisoindol-2-yl]biphenyl-3-carboxylic acid 2-morpholin-4-yl-ethyl ester] | < 20 µM
O=C(O)c1ccc(-c2ccc(F)cc2F)cc1N1C(=O)c2ccc(-c3c[nH]nn3)cc2C1=O [Example 51] | < 0.5 µM
NC(=O)c1ccc2c(c1)C(=O)N(c1cc(-c3ccc(F)c(F)c3)ccc1C(=O)O)C2 [compound 160, 3-(6-carbamoyl-1-oxoisoindolin-2-yl)-3′,4′-difluorobiphenyl-4-carboxylic acid] | 5 to 20 µM
N#Cc1c(NC(=O)c2ccc(C(=O)O)cc2C(N)=O)sc(-c2ccccc2)c1-c1ccccc1 [Example 11, 3-carbamoyl-4-[(3-cyano-4,5-diphenylthiophen-2-yl)carbamoyl]benzoic acid] | < 0.5 µM
CN(C)CCOC(=O)c1ccc(-c2ccc(F)c(F)c2)cc1N1Cc2ccc(C(=O)NS(C)(=O)=O)cc2C1=O [Compound 108, 3′,4′-Difluoro-3-(6-methanesulfonylaminocarbonyl-1-oxo-1,3-dihydroisoindol-2-yl)biphenyl-4-carboxylic acid 2-dimethylamino-ethyl ester] | < 20 µM
CC(CN(C)C)OC(=O)c1ccc(-c2ccc(Cl)cc2Cl)cc1NC(=O)c1cc(O)c(C(=O)O)cc1C(=O)O (stereo not drawn) [Example 65, 4-{[2′,4′-dichloro-4-({[1-(dimethylamino)propan-2-yl]oxy}carbonyl)-[1,1′-biphenyl]-3-yl]carbamoyl}-6-hydroxybenzene-1,3-dicarboxylic acid] | < 0.5 µM
O=C(O)c1ccc(-c2cnn[nH]2)cc1CNc1cc(-c2ccc(F)c(F)c2)ccc1C(=O)O [Example 7, 3-({[2-carboxy-5-(2H-1,2,3-triazol-4-yl)phenyl]methyl}amino)-3′,4′-difluoro-[1,1′-biphenyl]-4-carboxylic acid] | 5 to 20 µM
CNCCOC(=O)c1cc(-c2c[nH]cn2)ccc1N1C(=O)c2ccc(C(=O)O)cc2C1=O [Compound 77, 2-[4-(1H-Imidazol-4-yl)-2-(2-methylaminoethoxycarbonyl)-phenyl]-1,3-dioxo-2,3-dihydro-1H-isoindole-5-carboxylic Acid] | 0.5 to 2 µM
O=C(O)c1ccc(-c2ccc(F)c(F)c2)cc1N1Cc2ccc(CO)cc2C1=O [compound 158, 3′,4′-difluoro-3-(6-(hydroxymethyl)-1-oxoisoindolin-2-yl)biphenyl-4-carboxylic acid] | 5 to 20 µM
COc1ccc(-c2c(C)sc(NC(=O)c3cc(O)c(C(=O)O)cc3C(=O)O)c2C#N)cc1 [Example 33, 4-((3-cyano-4-(4-methoxyphenyl)-5-methylthiophen-2-yl)carbamoyl)-6-hydroxyisophthalic acid] | < 0.5 µM
COc1ccc(-c2c(C)sc(N3C(=O)c4ccc(C(=O)N[C@@H](CO)C(=O)O)cc4C3=O)c2C#N)cc1 [Example 16] | 2 to 5 µM
O=C(O)c1cc(C(=O)Nc2cc(N3CC4CCC3C4)ccc2C(=O)O)c(C(=O)O)cc1O (stereo not drawn) [Example 61, 2-[(5-{2-azabicyclo[2.2.1]heptan-2-yl}-2-carboxyphenyl)carbamoyl]-5-hydroxybenzene-1,4-dicarboxylic acid] | < 0.5 µM
COC(=O)c1cc(-c2c[nH]nn2)ccc1C(=O)Nc1sc(C)c(-c2ccc(OC)cc2)c1C#N [Example 9, methyl 2-{[3-cyano-4-(4-methoxyphenyl)-5-methylthiophen-2-yl]carbamoyl}-5-(2H-1,2,3-triazol-4-yl)benzoate] | 5 to 20 µM
CC1(C)CCN(c2ccc(C(=O)O)c(NC(=O)c3cc(C(=O)O)c(O)cc3C(=O)O)c2)CC1 [Example 56, 2-{[2-carboxy-5-(4,4-dimethylpiperidin-1-yl)phenyl]carbamoyl}-5-hydroxybenzene-1,4-dicarboxylic acid] | < 0.5 µM
O=C(O)c1cc(C(=O)Nc2cc(-c3ccc(F)c(F)c3)ccc2C(=O)O)c(C(=O)O)cc1Cl [Example 46, 2-({4-carboxy-3′,4′-difluoro-[1,1′-biphenyl]-3-yl}carbamoyl)-5-chlorobenzene-1,4-dicarboxylic acid] | < 0.5 µM
COc1ccc(-c2c(C)sc(NC(=O)c3ccc(-c4c[nH]nn4)cc3C(N)=O)c2C#N)cc1 [Example 8, N1-[3-cyano-4-(4-methoxyphenyl)-5-methylthiophen-2-yl]-4-(2H-1,2,3-triazol-4-yl)benzene-1,2-dicarboxamide] | 5 to 20 µM
COc1ccc(-c2c(C)sc(N3C(=O)c4ccc(C(=O)N[C@@H](CCC(N)=O)C(=O)O)cc4C3=O)c2C#N)cc1 [Example 21] | 5 to 20 µM
CN(C)CCOC(=O)c1ccc(-c2ccc(F)c(F)c2)cc1N1Cc2ccc(C(=O)O)cc2C1=O [Compound 120, 2-[4-(2-Dimethylamino-ethoxycarbonyl)-3′,4′-difluorobiphenyl-3-yl]-3-oxo-2,3-dihydro-1H-isoindole-5-carboxylic Acid] | 5 to 20 µM
CC(C)OC(=O)c1ccc(-c2ccc(F)c(F)c2)cc1N1Cc2ccc(-c3c[nH]nn3)cc2C1=O [Compound 118, 3′,4′-Difluoro-3-[1-oxo-6-(1H-[1,2,3]triazol-4-yl)-1,3-dihydro-isoindol-2-yl]-biphenyl-4-carboxylic acid isopropyl ester] | < 20 µM
CC1(C)CCN(c2ccc(C(=O)O)c(NC(=O)c3cc(O)c(C(=O)O)cc3C(=O)O)c2)CC1 [Example 53, 4-{[2-carboxy-5-(4,4-dimethylpiperidin-1-yl)phenyl]carbamoyl}-6-hydroxybenzene-1,3-dicarboxylic acid] | < 0.5 µM
CS(=O)(=O)Nc1ccc2c(c1)C(=O)N(c1cc(-c3ccc(F)c(F)c3)ccc1C(=O)O)C2 [Compound 131, 3′,4′-Difluoro-3-(6-methanesulfonylamino-1-oxo-1,3-dihydro-isoindol-2-yl)-biphenyl-4-carboxylic Acid] | < 20 µM
CN1CCN(CCOC(=O)c2ccc(-c3ccc(F)c(F)c3)cc2N2Cc3ccc(CO)cc3C2=O)CC1 [compound 155, 2-(4-methylpiperazin-1-yl)ethyl 3′,4′-difluoro-3-(6-(hydroxymethyl)-1-oxoisoindolin-2-yl)biphenyl-4-carboxylate] | < 20 µM
CC(=O)OCCOC(=O)c1ccc(-c2ccc(F)c(F)c2)cc1N1C(=O)c2ccc(-c3cnn[nH]3)cc2C1=O [compound 168, 2-(acetyloxy)ethyl 3-[1,3-dioxo-5-(1H-1,2,3-triazol-5-yl)-2,3-dihydro-1H-isoindol-2-yl]-3′,4′-difluoro[1,1′-biphenyl]-4-carboxylate] | < 20 µM
CN(C)CCCOC(=O)c1ccc(-c2ccc(Cl)cc2Cl)cc1NC(=O)c1cc(C(=O)O)c(O)cc1C(=O)O [Example 54, 2-[(2′,4′-dichloro-4-{[3-(dimethylamino)propoxy]carbonyl}-[1,1′-biphenyl]-3-yl)carbamoyl]-5-hydroxybenzene-1,4-dicarboxylic acid] | < 0.5 µM
